The values below come from patent US20220370416A1, “COMPOUNDS AND METHODS FOR TARGETED DEGRADATION OF KRAS” (Arvinas Operations, Inc., priority 2020, published 2022).

In assay [1] the target is T1, HiBit-KRAS^G12C (Homo sapiens, UniProt P01116, G12C). In words: HiBit degradation assay in MiaPaCa-2 HiBit-KRas^G12C cells. It is filed as cell-based. The settings on record: 24 hours; for Dmax: maximum degradation. The procedure, abridged: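 MiaPaCa-2 cells with CRISPR N-terminal HiBit knock-in on one endogenous KRAS^G12C allele, treated 24 hours at 37° C with compound titrated 10 μM to 20 nM (0.1% or 0.5% DMSO). Lytic HiBit luminescence normalized to DMSO, 4-parameter fit giving DC50 and Dmax; points cytotoxic to […] cells by alamar blue excluded.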

In assay [2] the target is T1, HiBit-KRAS^G12C. The experiment in a line: HiBit degradation assay in SW1573 HiBit-KRas^G12C cells. The conditions noted are these: 24 hours; for DC50: read-out: KRas^G12C-HIBit (SW1573; 0.1% DMSO) DC50*. The arrangement: expressed in transfected cells; host or cells: SW1573 (clone E6), modified pcDNA3.1 vector, TK promoter. It is filed as cell-based. The procedure, abridged:
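SW1573 cells stably expressing N-terminally HiBit-tagged KRAS G12C, under the TK promoter, were treated 24 h at 37 °C with 10 μM to 20 nM compound in 0.1% or 0.5% DMSO. Residual HiBit luminescence normalised to DMSO and fitted with a 4-parameter model for DC50 and Dmax. Points with ≥50% viability loss (alamar blue) excluded.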

Where [3] appears, read: SW1573 HiBit-KRas^G12C, 0.1% DMSO.
The mark [4] stands for this setting: MIA PaCa-2, MiaPaCa-2 HiBit-KRas^G12C cells, 0.1% DMSO, read-out: KRas^G12C-HiBiT (MiaPaCa; 0.1% DMSO) DMax.
Where [5] appears, read: MIA PaCa-2, MiaPaCa-2 HiBit-KRas^G12C cells, 0.5% DMSO, read-out: KRas^G12C-HiBiT (MiaPaCa; 0.5% DMSO) DMax.
[6] abbreviates: SW1573, SW1573 HiBit-KRas^G12C, 0.1% DMSO, read-out: KRas^G12C-HiBit (SW1573; 0.1% DMSO) Dmax**.
The mark [7] stands for this setting: SW1573, SW1573 HiBit-KRas^G12C, 0.5% DMSO, read-out: KRas^G12C-HiBiT (SW1573; 0.5% DMSO) Dmax**.

T1 sequence (P01116 1-186 isoform P01116-2 G12C limits assumed): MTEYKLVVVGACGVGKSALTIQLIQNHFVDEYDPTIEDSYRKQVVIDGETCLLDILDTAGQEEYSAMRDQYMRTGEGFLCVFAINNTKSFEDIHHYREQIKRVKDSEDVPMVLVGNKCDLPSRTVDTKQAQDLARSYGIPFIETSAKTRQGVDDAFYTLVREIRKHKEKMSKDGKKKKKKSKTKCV

As to `C=CC(=O)N1CCN(c2nc(O[C@H](C)CN3CC(N4CCN(CC(=O)N[C@H](C(=O)N5C[C@H](O)C[C@H]5C(=O)N[C@@H](C)c5ccc(-c6scnc6C)cc5)C(C)(C)C)CC4)C3)nc3c(F)c(-c4cc(O)cc5ccccc45)c(Cl)cc23)CC1` [Compound 62, (2S,4R)-1-[(2S)-2-[2-(4-{1-[(2R)-2-{[6-chloro-8-fluoro-7-(3-hydroxynaphthalen-1-yl)-4-[4-(prop-2-enoyl)piperazin-1-yl]quinazolin-2-yl]oxy}propyl]azetidin-3-yl}piperazin-1-yl)acetamido]-3,3-dimethylbutanoyl]-4-hydroxy-N-[(1S)-1-[4-(4-methyl-1,3-thiazol-5-yl)phenyl]ethyl]pyrrolidine-2-carboxamide], the Dmax at HiBit-KRAS^G12C [1] (MIA PaCa-2, read-out: KRas^G12C-HiBiT (MiaPaCa; 0.1% DMSO) DMax, MiaPaCa-2 HiBit-KRas^G12C cells, 0.1% DMSO) was under 35%; at HiBit-KRAS^G12C [2] (SW1573, read-out: KRas^G12C-HiBit (SW1573; 0.1% DMSO) Dmax**, SW1573 HiBit-KRas^G12C, 0.1% DMSO) it was 35 to 70%. Besides, the DC50 at HiBit-KRAS^G12C [2] (setting [3]) lay within 100 to 1000 nM.
As to `C=CC(=O)N1CCN(c2nc(OCCN3CCC(COCC(=O)N[C@H](C(=O)N4C[C@H](O)C[C@H]4C(=O)N[C@@H](C)c4ccc(-c5scnc5C)cc4)C(C)(C)C)CC3)nc3c(F)c(-c4cc(O)cc5ccccc45)c(Cl)cc23)CC1` [Compound 63, (2S,4R)-1-[(2S)-2-(2-{[1-(2-{[6-chloro-8-fluoro-7-(3-hydroxynaphthalen-1-yl)-4-[4-(prop-2-enoyl)piperazin-1-yl]quinazolin-2-yl]oxy}ethyl)piperidin-4-yl]methoxy}acetamido)-3,3-dimethylbutanoyl]-4-hydroxy-N-[(1S)-1-[4-(4-methyl-1,3-thiazol-5-yl)phenyl]ethyl]pyrrolidine-2-carboxamide], the Dmax on HiBit-KRAS^G12C [1] (setting [4]) is 35 to 70%; on HiBit-KRAS^G12C [1] (setting [5]), 35 to 70%; at HiBit-KRAS^G12C [2] (setting [6]) it was 35 to 70%; at HiBit-KRAS^G12C [2] (setting [7]), over 70%. Moreover, the DC50 on HiBit-KRAS^G12C [2] (setting [3]) was in the range of 100 to 1000 nM.
In the case of `C=CC(=O)N1CCN(c2nc(OCCN3CCC(CCOCC(=O)N[C@H](C(=O)N4C[C@H](O)C[C@H]4C(=O)N[C@@H](C)c4ccc(-c5scnc5C)cc4)C(C)(C)C)CC3)nc3c(F)c(-c4cc(O)cc5ccccc45)c(Cl)cc23)CC1` [Compound 64, (2S,4R)-1-[(2S)-2-(2-{2-[l-(2-{[6-chloro-8-fluoro-7-(3-hydroxynaphthalen-1-yl)-4-[4-(prop-2-enoyl)piperazin-1-yl]quinazolin-2-yl]oxy}ethyl)piperidin-4-yl]ethoxy}acetamido)-3,3-dimethylbutanoyl]-4-hydroxy-N-[(1S)-1-[4-(4-methyl-1,3-thiazol-5-yl)phenyl]ethyl]pyrrolidine-2-carboxamide], the Dmax at HiBit-KRAS^G12C [1] (setting [4]) was under 35%; on HiBit-KRAS^G12C [1] (setting [5]) it was 35 to 70%; on HiBit-KRAS^G12C [2] (setting [6]) it was 35 to 70%; at HiBit-KRAS^G12C [2] (setting [7]), 35 to 70%. Moreover, the DC50 on HiBit-KRAS^G12C [2] (setting [3]) lay in the range of 100 to 1000 nM.
Consider `C=CC(=O)N1CCN(c2nc(O[C@H](C)CN3CCC(COCC(=O)N[C@H](C(=O)N4C[C@H](O)C[C@H]4C(=O)N[C@@H](C)c4ccc(-c5scnc5C)cc4)C(C)(C)C)CC3)nc3c(F)c(-c4cc(O)cc5ccccc45)c(Cl)cc23)CC1` [Compound 65, (2S,4R)-1-[(2S)-2-[2-({1-[(2R)-2-{[6-chloro-8-fluoro-7-(3-hydroxynaphthalen-1-yl)-4-[4-(prop-2-enoyl)piperazin-1-yl]quinazolin-2-yl]oxy}propyl]piperidin-4-yl}methoxy)acetamido]-3,3-dimethylbutanoyl]-4-hydroxy-N-[(1S)-1-[4-(4-methyl-1,3-thiazol-5-yl)phenyl]ethyl]pyrrolidine-2-carboxamide], for which the Dmax on HiBit-KRAS^G12C [1] (setting [4]) was 35 to 70%; at HiBit-KRAS^G12C [1] (setting [5]), 35 to 70%; at HiBit-KRAS^G12C [2] (setting [6]) it was 35 to 70%; on HiBit-KRAS^G12C [2] (setting [7]), over 70%. Moreover, the DC50 on HiBit-KRAS^G12C [2] (setting [3]) was 100 to 1000 nM.
Regarding `C=CC(=O)N1CCN(c2nc(OCCN3CCC(OCCOCC(=O)N[C@H](C(=O)N4C[C@H](O)C[C@H]4C(=O)N[C@@H](C)c4ccc(-c5scnc5C)cc4)C(C)(C)C)CC3)nc3c(F)c(-c4cc(O)cc5ccccc45)c(Cl)cc23)CC1` [Compound 66, (2S,4R)-1-[(2S)-2-[2-(2-{[1-(2-{[6-chloro-8-fluoro-7-(3-hydroxynaphthalen-1-yl)-4-[4-(prop-2-enoyl)piperazin-1-yl]quinazolin-2-yl]oxy}ethyl)piperidin-4-yl]oxy}ethoxy)acetamido]-3,3-dimethylbutanoyl]-4-hydroxy-N-[(1S)-1-[4-(4-methyl-1,3-thiazol-5-yl)phenyl]ethyl]pyrrolidine-2-carboxamide], the Dmax at HiBit-KRAS^G12C [1] (setting [4]) was under 35%; at HiBit-KRAS^G12C [1] (setting [5]), 35 to 70%; at HiBit-KRAS^G12C [2] (setting [6]), 35 to 70%; on HiBit-KRAS^G12C [2] (setting [7]), 35 to 70%. Further, the DC50 at HiBit-KRAS^G12C [2] (setting [3]) is 100 to 1000 nM.
Take `C=CC(=O)N1CCN(c2nc(O[C@@H](C)CN3CCC(OCCOCC(=O)N[C@H](C(=O)N4C[C@H](O)C[C@H]4C(=O)N[C@@H](C)c4ccc(-c5scnc5C)cc4)C(C)(C)C)CC3)nc3c(F)c(-c4cc(O)cc5ccccc45)c(Cl)cc23)CC1` [Compound 67, (2S,4R)-1-[(2S)-2-{2-[2-({1-[(2S)-2-{[6-chloro-8-fluoro-7-(3-hydroxynaphthalen-1-yl)-4-[4-(prop-2-enoyl)piperazin-1-yl]quinazolin-2-yl]oxy}propyl]piperidin-4-yl}oxy)ethoxy]acetamido}-3,3-dimethylbutanoyl]-4-hydroxy-N-[(1S)-1-[4-(4-methyl-1,3-thiazol-5-yl)phenyl]ethyl]pyrrolidine-2-carboxamide]: the Dmax on HiBit-KRAS^G12C [1] (setting [4]), at HiBit-KRAS^G12C [1] (setting [5]), on HiBit-KRAS^G12C [2] (setting [6]) and on HiBit-KRAS^G12C [2] (setting [7]) was 35 to 70% in each case. Moreover, on HiBit-KRAS^G12C [2] (setting [3]), the DC50 lay within 100 to 1000 nM.
With `C=CC(=O)N1CCN(c2nc(O[C@H](C)CN3CCC(CCOCC(=O)N[C@H](C(=O)N4C[C@H](O)C[C@H]4C(=O)N[C@@H](C)c4ccc(-c5scnc5C)cc4)C(C)(C)C)CC3)nc3c(F)c(-c4cc(O)cc5ccccc45)c(Cl)cc23)CC1` [Compound 68, (2S,4R)-1-[(2S)-2-[2-(2-{1-[(2R)-2-{[6-chloro-8-fluoro-7-(3-hydroxynaphthalen-1-yl)-4-[4-(prop-2-enoyl)piperazin-1-yl]quinazolin-2-yl]oxy}propyl]piperidin-4-yl}ethoxy)acetamido]-3,3-dimethylbutanoyl]-4-hydroxy-N-[(1S)-1-[4-(4-methyl-1,3-thiazol-5-yl)phenyl]ethyl]pyrrolidine-2-carboxamide], the Dmax on HiBit-KRAS^G12C [1] (setting [4]) is under 35%; on HiBit-KRAS^G12C [1] (setting [5]), 35 to 70%; on HiBit-KRAS^G12C [2] (setting [6]), 35 to 70%; at HiBit-KRAS^G12C [2] (setting [7]), 35 to 70%. Moreover, the DC50 at HiBit-KRAS^G12C [2] (setting [3]) lay in the range of 100 to 1000 nM.
Regarding `C=CC(=O)N1CCN(c2nc(O[C@H](C)CN3CCC(OCCOCCOCCOc4cc(-c5scnc5C)ccc4CNC(=O)[C@@H]4C[C@@H](O)CN4C(=O)[C@H](c4cc(C)no4)C(C)C)CC3)nc3c(F)c(-c4cc(O)cc5ccccc45)c(Cl)cc23)CC1` [Compound 69, (2S,4R)-N-{[2-(2-{2-[2-({1-[(2R)-2-{[6-chloro-8-fluoro-7-(3-hydroxynaphthalen-1-yl)-4-[4-(prop-2-enoyl)piperazin-1-yl]quinazolin-2-yl]oxy}propyl]piperidin-4-yl}oxy)ethoxy]ethoxy}ethoxy)-4-(4-methyl-1,3-thiazol-5-yl)phenyl]methyl}-4-hydroxy-1-[(2S)-3-methyl-2-(3-methyl-1,2-oxazol-5-yl)butanoyl]pyrrolidine-2-carboxamide], the DC50 is over 1000 nM on HiBit-KRAS^G12C [1] (read-out: KRas^G12C-HiBiT (MiaPaCa; 0.1% DMSO) IC50, MiaPaCa-2 HiBit-KRas^G12C cells, 0.1% DMSO) and 100 to 1000 nM on HiBit-KRAS^G12C [2] (setting [3]). Besides, the Dmax on HiBit-KRAS^G12C [2] (setting [6]) fell in the range of 35 to 70%.
